Results taken from patent US20160102052A1, “Use of Cysteamine in Treating Infections caused by Yeasts/Moulds” (priority 2014, published 2016).
Like-named read-outs stand apart in the source and are kept apart here.

Tested on: Exophiala dermatitidis CA01
Assay: Broth microdilution chequerboard analysis of Lynovex (NM001) in combination with clinical antifungals
Format: cell-based
Conditions: for MIC: Exophiala dermatitidis, CA01, 72 h, antifungal in isolation, read-out: Antifungal MIC100; for MIC / Antifungal MIC100 in Combination: 72 h; for MIC / Antifungal MIC100 in Combination / Antifungal MIC50 in Combination: 35° C.; for FICI: antifungal with Lynovex (NM001), <0.5 Synergy, 0.5-1 Additive, >1 Indifference; for Antifungal MIC100 in Combination / Antifungal MIC50 in Combination: in combination with Lynovex (NM001)
Protocol: The aim of the experiment was to determine the effect of Lynovex (NM001) on the antifungal drug susceptibility of Exophiala dermatitidis CA01. Microtitre plates were prepared following CLSI recommendations for broth microdilution chequerboard method. These plates contained a serial doubling dilution of Lynovex (NM001) combined with serial doubling dilutions of antifungals drugs; Fluconazole, Itraconazole, Caspofungin and Amphotericin B. […] These were incubated at 35° C. and read at 72 h, 96 h, 120 h and 144 h on the BioTek plate reader. […] Three independent E. dermatitidis CA01 cultures were grown on PDA slope for 6 days at 35° C. • 7. Cultures were removed from incubator. 2 ml sterile 0.15M NaCl added to the overnight culture and cells harvested from the surface of the agar. Cells placed in fresh bijou tube. • 8. The cultures were allowed to rest for up to 10 minutes, allowing any hyphae to settle to the bottom. The top layer of conidia was removed into fresh bijou. Hyphae were discarded. • 9. […] This is continued to F12 where 100 μl is removed and discarded. • f. This dilution series was repeated in rows G-H for the remaining 2 cultures • g. Plate read at OD530 on BioTek • h. […] This preparation step occurs in two parts. First, Lynovex (NM001) and antifungals are serially diluted, down and across microtitre plates, respectively. Equal volumes of Lynovex and antifungal are then combined in a fresh microtitre plate, prior to inoculation. […] Stock solutions of Lynovex and antifungals were prepared at 4× desired concentrations. The plate layout at the end of this protocol is the final concentration in the plate following the combination of Lynovex and antifungals and the addition of the inocula. […] All other wells contain 150 μl sterile dH2O. • 9. Serial doubling dilutions are carried out from A to B whereby 150 μl is removed from A and placed into B and mixed well. Then take 150 μl B and place in C and mix well. This is repeated down to row G where the final 150 μl is discarded. […] The same procedure is repeated for the other 4 antifungals, carrying the dilutions across the plate i.e. […] At the final dilution in column 10, the final 150 μl is discarded. […] Inoculating Plates with E. dermatitidis CA01 • 6. Add 100 μl (total volume 200 μl) of the prepared E. dermatitidis CA01 culture to the all wells on the plate except wells H12. […] H12 will contain 100 μl water and 100 μl 2×RPMI-1640 alone, constituting an uninoculated control. • 8. The plate is read in the BioTek at OD530. • 9. Plates are then placed in a plastic box containing a Petri dish of water, sealed and incubated at 35° C. The presence of the water in the dish or on the tissue provides and environment of relatively high humidity. • 10. OD530 is then read at 72 h, 96 h, 120 h and 144 h and raw data processed using Microsoft Excel. • 11. Fractional Inhibitory Concentration (FIC) Index values are generated using MIC100 for 72 h data and MIC50 for later time points using the following formula: […]

| MIC (GEOMEAN) [µg/mL] | MIC (MEAN) [µg/mL] | MIC (Range) [µg/mL] | Antifungal MIC100 in Combination (GEOMEAN) [µg/mL] | Antifungal MIC50 in Combination (GEOMEAN, 96 h) [µg/mL] | Antifungal MIC50 in Combination (GEOMEAN, 120 h) [µg/mL] | Antifungal MIC50 in Combination (GEOMEAN, 144 h) [µg/mL] | Antifungal MIC100 in Combination (MEAN) [µg/mL] | Antifungal MIC50 in Combination (MEAN, 96 h) [µg/mL] | Antifungal MIC50 in Combination (MEAN, 120 h) [µg/mL] | Antifungal MIC50 in Combination (MEAN, 144 h) [µg/mL] | Antifungal MIC100 in Combination (Range) [µg/mL] | Compound | FICI (GEOMEAN, MIC50, 96 h) | FICI (GEOMEAN, MIC50, 120 h) | FICI (GEOMEAN, MIC50, 144 h) | FICI (GEOMEAN, MIC100, 72 h) | FICI (MEAN, MIC50, 96 h) | FICI (MEAN, MIC50, 120 h) | FICI (MEAN, MIC50, 144 h) | FICI (MEAN, MIC100, 72 h) | further results |
| --- | --- | --- | --- | --- | --- | --- | --- | --- | --- | --- | --- | --- | --- | --- | --- | --- | --- | --- | --- | --- | --- |
| 4.5 | 4.7 | 4 to 8 | 0.14 | 0.37 | 0.19 | 0.20 | 0.24 | 0.74 | 0.33 | 0.27 | 0.03 to 0.5 | CCC(C)n1ncn(-c2ccc(N3CCN(c4ccc(OCC5COC(Cn6cncn6)(c6ccc(Cl)cc6Cl)O5)cc4)CC3)cc2)c1=O (stereo not shown) [Itraconazole] | 0.27 (7) | 0.18 (5) | 0.18 (3) | 0.18 (5) | 0.32 (7) | 0.20 (5) | 0.19 (3) | 0.19 (5) | Antifungal MIC50 in Combination (Range, 96 h): 0.06 to 2 µg/mL; Antifungal MIC50 in Combination (Range, 120 h): 0.06 to 1 µg/mL; Antifungal MIC50 in Combination (Range, 144 h): 0.06 to 0.5 µg/mL |
| 25 | 26 | 15.6 to 31.2 | 2.0 | 11.84 | 1.95 | 3.91 | 2.0 | 14.84 | 4.20 | 6.51 | 2.0 | CC[C@H](C)C[C@H](C)CCCCCCCCC(=O)N[C@H]1C[C@@H](O)[C@@H](NCCN)NC(=O)[C@@H]2[C@@H](O)CCN2C(=O)[C@H]([C@H](O)CCN)NC(=O)[C@H]([C@H](O)[C@@H](O)c2ccc(O)cc2)NC(=O)[C@@H]2C[C@@H](O)CN2C(=O)[C@H]([C@@H](C)O)NC1=O [Caspofungin] | 0.48 (4) | 0.24 (4) | 0.41 (3) | 0.25 (1) | 0.58 (4) | 0.27 (4) | 0.52 (3) | 0.25 (1) | Antifungal MIC50 in Combination (Range, 96 h): 3.91 to 31.25 µg/mL; Antifungal MIC50 in Combination (Range, 120 h): 0.49 to 15.625 µg/mL; Antifungal MIC50 in Combination (Range, 144 h): 0.23 µg/mL |
